In ChEMBL document CHEMBL5291721, “A preclinical secondary pharmacology resource illuminates target-adverse drug reaction associations of marketed drugs” (Nat Commun, 2023):

What was measured:
Prothrombin = Prothrombin (Homo sapiens, UniProt P00734); type: functional
[1] = biological target: Sodium-dependent dopamine transporter (Homo sapiens, UniProt Q01959)
Progesterone receptor = biological target: T1, Progesterone receptor (Homo sapiens, UniProt P06401)
T1 sequence (P06401 whole entry): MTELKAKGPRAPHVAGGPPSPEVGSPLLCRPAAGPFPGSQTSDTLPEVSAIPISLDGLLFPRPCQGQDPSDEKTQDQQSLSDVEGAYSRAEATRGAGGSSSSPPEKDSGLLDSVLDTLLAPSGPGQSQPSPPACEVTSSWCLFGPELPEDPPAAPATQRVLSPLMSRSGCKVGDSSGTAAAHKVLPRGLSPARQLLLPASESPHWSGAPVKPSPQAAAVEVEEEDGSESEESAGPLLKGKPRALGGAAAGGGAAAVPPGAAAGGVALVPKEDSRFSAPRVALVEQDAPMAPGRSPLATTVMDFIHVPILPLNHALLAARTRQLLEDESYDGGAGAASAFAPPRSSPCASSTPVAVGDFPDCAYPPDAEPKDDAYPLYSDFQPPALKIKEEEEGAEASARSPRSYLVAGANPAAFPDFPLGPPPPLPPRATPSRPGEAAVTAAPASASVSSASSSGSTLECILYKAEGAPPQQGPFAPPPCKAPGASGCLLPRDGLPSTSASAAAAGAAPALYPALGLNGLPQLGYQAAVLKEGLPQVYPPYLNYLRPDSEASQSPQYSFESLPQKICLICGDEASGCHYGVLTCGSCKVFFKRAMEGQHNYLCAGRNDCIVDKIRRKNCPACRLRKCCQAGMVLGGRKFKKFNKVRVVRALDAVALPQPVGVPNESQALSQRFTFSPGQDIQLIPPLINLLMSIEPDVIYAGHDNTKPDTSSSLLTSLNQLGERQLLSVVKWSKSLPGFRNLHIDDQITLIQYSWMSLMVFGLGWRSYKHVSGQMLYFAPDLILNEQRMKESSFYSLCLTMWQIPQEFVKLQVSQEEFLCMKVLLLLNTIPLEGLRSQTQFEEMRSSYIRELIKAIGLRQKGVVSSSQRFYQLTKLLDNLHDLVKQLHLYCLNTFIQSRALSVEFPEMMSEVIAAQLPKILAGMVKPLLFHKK

[2] = biological target: T2, Alpha-2A adrenergic receptor (Homo sapiens, UniProt P08913)
T2 sequence (P08913 whole entry): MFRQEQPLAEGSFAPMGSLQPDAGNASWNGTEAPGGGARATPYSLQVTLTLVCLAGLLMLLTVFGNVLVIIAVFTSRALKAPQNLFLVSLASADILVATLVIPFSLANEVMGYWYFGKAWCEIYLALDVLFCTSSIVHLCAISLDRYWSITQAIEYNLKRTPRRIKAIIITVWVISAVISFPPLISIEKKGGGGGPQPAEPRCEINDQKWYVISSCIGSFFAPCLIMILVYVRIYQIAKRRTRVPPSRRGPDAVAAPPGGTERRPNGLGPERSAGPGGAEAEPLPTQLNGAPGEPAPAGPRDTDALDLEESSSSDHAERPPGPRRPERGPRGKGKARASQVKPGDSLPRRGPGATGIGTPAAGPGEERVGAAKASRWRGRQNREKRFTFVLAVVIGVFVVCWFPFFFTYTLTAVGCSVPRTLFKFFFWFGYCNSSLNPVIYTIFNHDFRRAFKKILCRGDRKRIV
Also: assay procedure not described here.

Chain of Sodium-dependent dopamine transporter (Q01959 whole entry): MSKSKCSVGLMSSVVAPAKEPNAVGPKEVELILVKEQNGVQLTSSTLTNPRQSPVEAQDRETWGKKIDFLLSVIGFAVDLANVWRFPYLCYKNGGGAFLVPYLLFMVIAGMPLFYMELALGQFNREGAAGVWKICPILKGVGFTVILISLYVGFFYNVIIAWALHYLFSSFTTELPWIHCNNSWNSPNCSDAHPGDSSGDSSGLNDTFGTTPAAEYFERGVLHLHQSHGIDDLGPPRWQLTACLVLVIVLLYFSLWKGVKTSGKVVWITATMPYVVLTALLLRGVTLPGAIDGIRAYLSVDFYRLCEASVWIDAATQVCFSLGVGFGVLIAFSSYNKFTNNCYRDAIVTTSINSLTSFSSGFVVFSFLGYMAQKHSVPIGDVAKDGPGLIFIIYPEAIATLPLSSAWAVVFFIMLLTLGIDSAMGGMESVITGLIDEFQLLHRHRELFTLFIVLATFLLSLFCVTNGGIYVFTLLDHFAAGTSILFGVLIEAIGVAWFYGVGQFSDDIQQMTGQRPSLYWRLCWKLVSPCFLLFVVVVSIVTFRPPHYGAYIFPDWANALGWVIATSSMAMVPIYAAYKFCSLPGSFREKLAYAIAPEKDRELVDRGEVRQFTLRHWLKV

SMILES	AC50 (Prothrombin)	AC50 [1]	AC50 (Progesterone receptor)	AC50 [2]
Cc1ccccc1C(=O)Nc1ccc(C(=O)N2CCCC(N(C)C)c3ccccc32)cc1 (centres undefined) [MOZAVAPTAN]	> 30 µM	> 30 µM	> 30 µM	> 30 µM
CCOC(=O)c1c(C)cc2c(CO)n[nH]c(=O)c2c1C [OXAGRELATE]	> 30 µM	> 30 µM	> 30 µM	> 30 µM
C[C@]1(Cn2ccnn2)[C@H](C(=O)O)N2C(=O)C[C@H]2S1(=O)=O [TAZOBACTAM]	> 30 µM	> 30 µM	> 30 µM	> 30 µM
CN(C)[C@@H]1C(O)=C(C(N)=O)C(=O)[C@@]2(O)C(O)=C3C(=O)c4c(O)ccc(Cl)c4[C@@](C)(O)[C@H]3C[C@@H]12 [CHLORTETRACYCLINE]	> 30 µM	> 30 µM	> 30 µM	> 30 µM
O=C(O)CO [GLYCOLIC ACID]	> 30 µM	> 30 µM	> 30 µM	> 30 µM
C[N+](C)(C)C[C@H](O)CC(=O)[O-] [LEVOCARNITINE]	> 30 µM	> 30 µM	> 30 µM	> 30 µM
CC[C@@]1(O)C(=O)OCc2c1cc1n(c2=O)Cc2cc3c([N+](=O)[O-])cccc3nc2-1 [RUBITECAN]	> 30 µM	> 30 µM	> 30 µM	> 30 µM
CC(C)OC(=O)CCC/C=C\C[C@@H]1[C@@H](/C=C/C(F)(F)COc2ccccc2)[C@H](O)C[C@@H]1O [TAFLUPROST]	> 30 µM	> 30 µM	> 30 µM	> 30 µM
CC1=C(/C=C/C(C)=C/C=C/C(C)=C/C(=O)O)C(C)(C)CCC1 [TRETINOIN]	> 30 µM	> 30 µM	4.24 µM	> 30 µM
C=CCN1CC[C@]23CCCC[C@H]2[C@H]1Cc1ccc(O)cc13 [LEVALLORPHAN]	> 30 µM	> 30 µM	> 30 µM	> 30 µM
CC(C)(O)CNc1nc(Nc2ccnc(C(F)(F)F)c2)nc(-c2cccc(C(F)(F)F)n2)n1 [ENASIDENIB]	> 30 µM	> 30 µM	> 30 µM	> 30 µM
Cc1onc(-c2ccccc2)c1C(=O)N[C@@H]1C(=O)N2[C@@H]1SC(C)(C)[C@@H]2C(=O)O [OXACILLIN]	> 30 µM	> 30 µM	> 30 µM	> 30 µM
O=C(O)COc1ccc(C(=O)c2cccs2)c(Cl)c1Cl	> 30 µM	> 30 µM	> 30 µM	> 30 µM
COc1c2ccoc2cc2oc(=O)ccc12 [BERGAPTEN]	> 30 µM	> 30 µM	12.4 µM	> 30 µM
CC[C@H](C)C[C@H](C)CCCCCCCCC(=O)N[C@H]1C[C@@H](O)[C@@H](NCCN)NC(=O)[C@@H]2[C@@H](O)CCN2C(=O)[C@H]([C@H](O)CCN)NC(=O)[C@H]([C@H](O)[C@@H](O)c2ccc(O)cc2)NC(=O)[C@@H]2C[C@@H](O)CN2C(=O)[C@H]([C@@H](C)O)NC1=O [CASPOFUNGIN]	> 30 µM	4.13 µM	5.7 µM	> 30 µM
Nc1ccc(C(=O)Oc2ccccc2)c(O)c1 [PHENYL AMINOSALICYLATE]	> 30 µM	0.235 µM	> 30 µM	> 30 µM
